Measurements taken from patent US12403143B2, “Pharmaceutical composition for treating functional psychiatric disorders” (OBSCHESTVO S OGRANICHENNOI OTVETSTVENNOSTYU “VALENTEK”, priority 2016, dated 2025).
Like-named read-outs stand apart in the source and are kept apart here.

What was measured:
rats = assay: Sub-chronic toxicity, blood composition / neutrophil kinetics; format: in vivo; details: intragastric 5 mg/kg daily for 28 days
Protocol: The neutrophil kinetics were studied within comparative tests of sub-chronic toxicity. Studies were conducted in rats upon intragastric administration of substances at a dose of 5 mg/kg. The test substances were administered daily for 28 days. Each experimental group composed of 10 animals of each sex.

[1] = Leucht et al., Lancet 2013; cited from earlier work
CF-1 mice = assay: Sedation: total distance travelled after oral administration; format: in vivo
Source text: The results of the in vitro experiments given in Example 4 have been confirmed by the studies of sedation.

[2] = Maximum tolerated dose by dose escalation; format: in vivo, miniature pigs; details: pig, in vivo, miniature pigs, dose escalation
Protocol: (§1) To assess the safety of halogen derivatives of clozapine, the maximum tolerated dose (MTD) for miniature pigs was determined.
(§2) Initially, the pharmaceutical composition was administered at a dose of 0.53 mg/kg for 7 days. Then, on the 8th day, the administered dose of the pharmaceutical composition was increased to 1 mg/kg. After that, the dose was increased by 0.5 mg/kg every 1st, 3rd and 5th days of the seven-day cycle until an observable intoxication was noted.

miniature pigs = assay: Maximum tolerated dose by dose escalation; format: in vivo; details: extrapolated from miniature pigs
Protocol: as §1, §2

H1 receptor = H1 receptor (Homo sapiens, UniProt P35367); assay: H1 receptor functional activity, Fluo-4 NW Ca2+ fluorescence
Sequence of H1 receptor (P35367 whole entry): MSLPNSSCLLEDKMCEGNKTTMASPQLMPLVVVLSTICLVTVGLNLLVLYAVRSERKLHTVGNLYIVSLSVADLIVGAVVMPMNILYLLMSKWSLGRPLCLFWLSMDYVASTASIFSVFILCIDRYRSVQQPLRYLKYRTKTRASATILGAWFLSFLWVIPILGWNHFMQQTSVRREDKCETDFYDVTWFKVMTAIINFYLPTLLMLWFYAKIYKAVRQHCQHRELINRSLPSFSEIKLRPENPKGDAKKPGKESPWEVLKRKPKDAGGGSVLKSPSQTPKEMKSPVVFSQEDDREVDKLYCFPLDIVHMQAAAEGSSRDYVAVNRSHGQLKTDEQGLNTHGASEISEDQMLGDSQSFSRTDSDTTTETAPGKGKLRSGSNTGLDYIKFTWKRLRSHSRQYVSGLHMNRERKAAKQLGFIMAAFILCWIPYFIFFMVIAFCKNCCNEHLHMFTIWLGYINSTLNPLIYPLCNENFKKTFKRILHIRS
Protocol: The functional activity against H1 receptor was determined according to the fluorescence of Fluo-4 NW indicator introduced into cells, induced by a change in Ca^2+ ion concentration in the cytosol.

muscarinic M4 receptor = molecular target: T1, muscarinic M4 receptor (Homo sapiens, UniProt P08173); assay: M4 muscarinic receptor functional experiments, cAMP level; format: cell-based
T1 sequence (P08173 1-479): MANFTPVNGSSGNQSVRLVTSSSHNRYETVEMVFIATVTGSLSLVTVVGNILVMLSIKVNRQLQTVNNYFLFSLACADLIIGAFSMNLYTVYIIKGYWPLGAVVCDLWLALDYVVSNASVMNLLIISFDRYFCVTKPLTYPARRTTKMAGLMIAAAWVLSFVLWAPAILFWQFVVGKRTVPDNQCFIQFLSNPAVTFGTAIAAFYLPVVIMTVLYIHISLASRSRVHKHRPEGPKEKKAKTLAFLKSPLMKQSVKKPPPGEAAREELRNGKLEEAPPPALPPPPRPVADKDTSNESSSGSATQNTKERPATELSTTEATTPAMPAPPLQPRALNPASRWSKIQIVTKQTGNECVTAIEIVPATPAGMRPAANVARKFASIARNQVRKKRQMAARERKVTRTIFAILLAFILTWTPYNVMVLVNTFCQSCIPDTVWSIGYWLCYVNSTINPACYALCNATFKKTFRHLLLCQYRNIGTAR
Protocol: The side effect of M4 muscarinic receptor agonists is intense salivation (sialorrhea). […] Curves of response dependence on the concentration of the compound for the receptor were built; the response criterion was the level of the secondary messenger—cAMP, which is determined by fluorescence after cell lysis expressing the receptor.

M1 receptor = molecular target: T2, M1 receptor (Homo sapiens, UniProt P11229); assay: M1 muscarinic receptor activation, Fluo-4 NW Ca2+ fluorescence; format: cell-based; details: FIG. 6
T2 sequence (P11229 1-460): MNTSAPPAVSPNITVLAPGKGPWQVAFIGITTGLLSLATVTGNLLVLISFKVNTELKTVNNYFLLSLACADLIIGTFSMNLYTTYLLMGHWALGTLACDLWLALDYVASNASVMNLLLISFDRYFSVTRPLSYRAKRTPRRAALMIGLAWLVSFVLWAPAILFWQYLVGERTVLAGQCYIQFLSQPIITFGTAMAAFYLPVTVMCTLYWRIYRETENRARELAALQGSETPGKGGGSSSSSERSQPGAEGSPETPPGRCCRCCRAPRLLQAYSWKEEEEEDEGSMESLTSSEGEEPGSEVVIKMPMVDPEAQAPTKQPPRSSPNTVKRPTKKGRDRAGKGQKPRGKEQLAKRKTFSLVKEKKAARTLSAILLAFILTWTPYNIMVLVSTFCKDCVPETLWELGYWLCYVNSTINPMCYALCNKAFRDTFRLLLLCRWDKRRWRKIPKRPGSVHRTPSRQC
Protocol: The activity was determined according to the fluorescence of Fluo-4 NW indicator introduced into cells, induced by a change in Ca^2+ ion concentration in the cytosol.

5HT2A receptor = 5HT2A receptor (Homo sapiens, UniProt P28223); assay: 5HT2A receptor functional antagonism, cAMP level by fluorescence; format: cell-based
Sequence of 5HT2A receptor (P28223 whole entry): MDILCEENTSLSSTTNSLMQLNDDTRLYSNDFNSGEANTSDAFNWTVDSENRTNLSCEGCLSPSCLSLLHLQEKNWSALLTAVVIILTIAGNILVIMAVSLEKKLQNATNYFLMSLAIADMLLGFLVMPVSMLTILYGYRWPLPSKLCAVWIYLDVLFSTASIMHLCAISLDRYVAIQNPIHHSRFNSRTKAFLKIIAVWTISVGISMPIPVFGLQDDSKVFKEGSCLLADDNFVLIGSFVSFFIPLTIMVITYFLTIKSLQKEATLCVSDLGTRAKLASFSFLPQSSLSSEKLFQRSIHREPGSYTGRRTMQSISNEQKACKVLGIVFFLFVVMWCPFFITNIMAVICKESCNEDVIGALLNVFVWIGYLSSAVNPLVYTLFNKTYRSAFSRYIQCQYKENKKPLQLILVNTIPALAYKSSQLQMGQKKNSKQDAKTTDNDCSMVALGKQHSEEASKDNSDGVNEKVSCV
Protocol: (§3) Response for cells expressing D2 receptors was determined by the change in cell conductance caused by the redistribution of intracellular calcium. For 5HT2A receptor, the response criterion was the level of the secondary messenger, cAMP, determined by fluorescence after lysis of the cell expressing the receptor.

mice = assay: Amphetamine-induced locomotion inhibition (ALI), model of bipolar disorder; format: in vivo
Source text: The ability of drugs to inhibit amphetamine-induced locomotor activity (amphetamine-induced locomotion inhibition, ALI) is a consequence of their blocking effect on dopamine receptors. Amphetamine causes a disruption of the reuptake of monoamine neurotransmitters and their accumulation in the intersynaptic space; blockade of dopamine receptors by antagonists neutralizes the excessive stimulation of dopamine signaling pathways. ALI is the basic test based on the dopamine model of bipolar disorder, and allows to evaluate the ability of drug candidates to bind to brain dopamine receptors in vivo.
[…]. After that, 3 mg/kg of d-amphetamine were administered intraperitoneally to the animals and the record of the activity was resumed. The distance (in cm) travelled by the animal in the first 60 minutes after administration of antipsychotic drugs and the distance travelled in the next hour after d-amphetamine administration were estimated.

[3] = Metabolism and tissue distribution of fluoroclozapine after single oral administration; details: rats, single oral 10 mg/kg fluoroclozapine
D4.4 receptor = molecular target: T3, D4.4 receptor (Homo sapiens, UniProt P21917); assay: D4 receptor functional antagonism, cAMP level by fluorescence; format: cell-based; details: ratio of binding constants
T3 sequence (P21917 1-419): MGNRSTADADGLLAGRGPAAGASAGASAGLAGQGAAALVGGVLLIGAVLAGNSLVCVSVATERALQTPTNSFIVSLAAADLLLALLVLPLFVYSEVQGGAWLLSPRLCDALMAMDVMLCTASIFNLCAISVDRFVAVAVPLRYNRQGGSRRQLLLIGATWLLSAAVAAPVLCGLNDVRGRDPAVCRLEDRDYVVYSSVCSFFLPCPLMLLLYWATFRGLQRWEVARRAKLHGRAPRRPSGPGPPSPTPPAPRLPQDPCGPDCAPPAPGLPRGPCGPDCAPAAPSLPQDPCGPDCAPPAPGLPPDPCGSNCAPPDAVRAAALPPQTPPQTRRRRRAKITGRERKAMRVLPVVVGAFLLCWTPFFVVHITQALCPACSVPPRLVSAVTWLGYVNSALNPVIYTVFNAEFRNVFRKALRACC
Protocol: as §3, with “was determined as the change” for “was determined by the change”, “calcium. For D4 receptor, the” for “calcium. For 5HT2A receptor, the”

[4] = female, read-out: MTD (females)

Structure (SMILES)	Stab neutrophils (rats)	increase of the risk of sedation [1]	MTD [2, 4]	MTD ([2]; male, read-out: MTD (males))	corresponding MTD for a human (miniature pigs)	Therapeutic window width (Kb, H1/Kb, 5HT2A) (H1 receptor)	effect on M1 receptors (M1 receptor)	other results
CN1CCN(C2=Nc3cc(Cl)ccc3Nc3ccccc32)CC1 [Clozapine, clozapine, reference compound]	4.6 ± 0.7 %	8.8 times	4.5 mg/kg	3 mg/kg	270 mg per day			number of circulating neutrophils in the blood versus control group (rats): significant increase; total distance travelled / sedation (CF-1 mice; mouse, in vivo): significantly reduced
Clc1ccc2c(c1)N=C(N1CCNCC1)c1ccccc1N2 [Desmethylclozapine, desmethylclozapine, reference compound]						0.24		
Fc1cc2c(cc1Cl)N=C(N1CCNCC1)c1ccccc1N2 [Desmethylfluoroclozapine, 11-(piperazine-1-yl)-7-fluoro-8-chloro-5H-dibenzo[b,e][1,4]diazepine]	4.2 ± 0.4%						is an agonist, and causes a significant response in the therapeutic drug concentration window	Therapeutic window width (Kb, H1/Kb, 5HT2A) (H1 receptor; ratio of binding constants): 0.93; activating concentration, times higher than that of clozapine (muscarinic M4 receptor): 290 times; activating concentration, times higher than that of desmethylclozapine (muscarinic M4 receptor): 30 times; motion activity (CF-1 mice; CF-1 mice, oral 10 mg/kg): insignificant decrease in motion activity; Kb (5HT2A receptor; binding constant determined from IC50, antagonism setup): 16 nM; Therapeutic window width (Kb, D2/Kb, 5HT2A) (5HT2A receptor; ratio of binding constants): 34
CN1CCN(C2=Nc3cc(Cl)c(F)cc3Nc3ccccc32)CC1 [Fluoroclozapine, 11-(4-methylpiperazine-1-yl)-7-fluoro-8-chloro-5H-dibenzo[b,e][1,4] diazepine]	3.2 ± 0.4%		6 mg/kg	5 mg/kg	450 mg per day	0.63	virtually no effect on M1 receptors	concentrations for inhibition of H1 compared with inhibition of 5HT2A (times lower) (H1 receptor): approximately equal concentrations; minimum effective dose designed for patient (mice; depending on patient's body weight): 20-35 mg per day; minimum effective dose designed for patient (mice; extrapolated from ALI experiment): 0.5 mg/kg; concentrations of fluoroclozapine and its metabolite desmethylfluoroclozapine in the brain [3]: comparable; metabolism [3]: metabolized to desmethylfluoroclozapine
OCCOCCN1CCN(C2=Nc3ccccc3Sc3ccccc32)CC1 [quetiapine]		3.7 times						Therapeutic window width (Kb, D2/Kb, D4) (D4.4 receptor): 0.11
